One may read the Km as the substrate concentration at which the rate is half of its maximum. As usually defined, the Ki is a measure of affinity in units of concentration, obtained from inhibition or displacement. Higher therefore signals a looser hold on the target.

A short description of test [1]: Michaelis-Menten constant against myristoyl CoA was determined in mouse. The format is organism-based.
Test [2] is described as follows: Compound was tested for the competitive inhibition against mouse brain N-Myristoyltransferase. Format: tissue-based.

On to `CCCCCCCCCCCCCC(=O)CSCCNC(=O)CCNC(=O)C(O)C(C)(C)COP(=O)(O)OP(=O)(O)OC[C@H]1O[C@@H](n2cnc3c(N)ncnc32)[C@H](O)[C@@H]1OP(=O)(O)O` (some centres not stated), for which the Michaelis constant (Km) in test [1] stood at 0.4 µM. Further, in test [2], the Ki is 0.024 µM.
